Source: patent US20160229835A1, “NOVEL PYRIDYLOXYACETYL TETRAHYDROISOQUINOLINE COMPOUNDS USEFUL AS NAMPT INHIBITORS” (ELI LILLY AND COMPANY, priority 2013, published 2016)

Key:
NAMPT = NAMPT (Homo sapiens, UniProt P43490); test: NAMPT Biochemical Assay (NMN formation by LC-MS); settings: relative IC50; 1.5 nM NAMPT, 2 hours at room temperature; read-out: IC50 (inhibition of NAMPT catalytic activity, NMN formation)
Experimental: The purpose of this assay is to measure the ability of a compound to inhibit NAMPT catalytic activity. Reaction mixtures (25 μL) containing 50 mM HEPES at pH 7.5, 50 mM NaCl, 1 mM DTT, 0.005% TRITON® X-100, 1.5 μM phosphoribosyl-pyrophosphate, 0.5 μM nicotinamide (NAM), 1.5 nM NAMPT, 2.5 mM ATP, 1.25 mM MgCl2, 4% (v/v) DMSO and compounds after a ten-point series dilution from either 1 μM to 50 pM or 0.1 μM to 5 pM (final) are prepared. The reaction mixtures are incubated at room temperature for 2 hours. The reaction is terminated by the addition of ACN (25 μL) containing nicotinamide mononucleotide-d4 (NMN-d4) as an internal standard (final concentration: 5 μM). […] A positive control group (enzyme and DMSO, but no compound) is used to measure minimum inhibition (0%) of NMN formation. Percent inhibition of compound treated groups is calculated relative to the minimum inhibition group. The relative IC50 for each compound is calculated from a dose response study and is the concentration necessary to achieve 50% inhibition at this time point using the above disclosed ranges of 1 μM to 50 pM (final). The data generated from the dose-response studies is fit to a four-parameter logistic equation using ACTIVITYBASE 4.0 Equation 205.

A2780 Cancer Cells = test: LC-MS Analysis of NAD+ and Carbohydrate Metabolites in A2780 Cancer Cells; format: cell-based; settings: for Metabolite Levels (μM) DHAP / Metabolite Levels (μM) FBP / Metabolite Levels (μM) FP / Metabolite Levels (μM) NAD / Metabolite Levels (μM) SP: A2780 cells, 24 hours
Experimental: The purpose of this assay is to measure effects of NAMPT inhibitors on NAD^+ formation in cancer cells. LC-MS analysis of NAD^+ metabolites: nicotinamide mononucleotide (NMN), NAD^+, reduced nicotinamide adenine dinucleotide (NADH), and nicotinamide adenine dinucleotide phosphate (NADP) is performed on an HPLC system coupled to a Thermo Quantum Ultra triple quadrupole mass spectrometer operated in positive heated electrospray mode with selected reaction monitoring detection. For cell extracts, 50 μL of extract and 10 μL of 10 μM internal standard (IS) solution is transferred to a 96-well plate, dried under nitrogen and reconstituted in 50 μL of water. For tissue extracts, 20 μL of extract and 10 μL of IS solution are dried and reconstituted in 50 μL water. The IS solution contains 10 μM nicotinamide-d4 (C/D/N Isotopes), nicotinic acid-d4 (C/D/N Isotopes), nicotinamide mononucleotide-d4 (prepared by custom synthesis) and nicotinamide 1,N^6-ethenoadenine dinucleotide in methanol. The metabolites are separated on a Waters XBRIDGE™ Amide (2.1×50 mm, 3 μm) with an injection volume of 10 μL and a flow rate of 1 mL/minute using 10 mM ammonium acetate in 95% acetonitrile for mobile phase A and 10 mM ammonium acetate in 50% acetonitrile for mobile phase B. The gradient is as follows: 0 minutes, 0% B; 2.5 minutes, 70% B; 2.51 minutes, 100% B; 2.8 minutes, 100% B; 2.81 minutes, 0% B, 3.6 minutes, 0% B.
The purpose of this assay is to measure effects of NAMPT inhibitors on the levels of metabolites such as glucose-6-phosphate/fructose-6-phosphate/fructose-1-phosphate collectively as hexose phosphate (HP), fructose-1,6-bisphosphate (FBP), glyceraldehyde-3-phosphate (G3P), dihydroxyacetone phosphate (DHAP), 3-phosphoglycerate (3PG), 2-phosphoglycerate (2PG), phosphoenoylpyruvate (PEP), gluconate-6-phosphate (GN6P), xylulose-5-phosphate (X5P), ribulose-5-phosphate (Ru5P), ribose-5-phosphate (R5P), sedoheptulose-7-phosphate/sedoheptulose-1-phosphate collectively as sedoheptulose phosphate (SP), erythrose-4-phosphate (E4P), and α-ketoglutarate (α-KG) derived from glycolysis, the TCA cycle, and the pentose-phosphate pathway in tumor cells. Cells (50,000/well) are grown as described above in 100 μL of Dulbecco's Modified Eagle Medium supplemented with 10% FBS (dialyzed) and 25 mM glucose, and treated with a compound in triplicates in the presence or absence of 10 μM nicotinic acid. After 24 hours of treatment, the growth medium is removed and 200 μL of 80% methanol is added to each well. After incubation at room temperature for 15 minutes, the resulting extracts are transferred to 96-deep-well plates and washed twice with 200 μL of 80% methanol/water. Then, the plates are heat sealed and stored at −80° C., or dried and reconstituted in 100 μL of 25 μM ethylenediaminetetraacetic acid and injected into LC-MS for analysis.
The LC-MS analysis for carbohydrate metabolites is performed as follows. Chromatographic separations are performed with an HPLC system, which is coupled to an AB Sciex triple quadrupole LC-MS mass spectrometer. Analytes with phosphates are analyzed as follows. The samples are dried and reconstituted in ACN/water solutions and are separated on a Phenomenex Luna amino HPLC column (2.1×30 mm 3 μm) under the conditions as described by Yuan et al. (Nature Protocols, 2012, […], 872-881.). The mass spectrometer is operated under negative ESI MRM mode.

NAMPT, sequence (P43490 whole entry): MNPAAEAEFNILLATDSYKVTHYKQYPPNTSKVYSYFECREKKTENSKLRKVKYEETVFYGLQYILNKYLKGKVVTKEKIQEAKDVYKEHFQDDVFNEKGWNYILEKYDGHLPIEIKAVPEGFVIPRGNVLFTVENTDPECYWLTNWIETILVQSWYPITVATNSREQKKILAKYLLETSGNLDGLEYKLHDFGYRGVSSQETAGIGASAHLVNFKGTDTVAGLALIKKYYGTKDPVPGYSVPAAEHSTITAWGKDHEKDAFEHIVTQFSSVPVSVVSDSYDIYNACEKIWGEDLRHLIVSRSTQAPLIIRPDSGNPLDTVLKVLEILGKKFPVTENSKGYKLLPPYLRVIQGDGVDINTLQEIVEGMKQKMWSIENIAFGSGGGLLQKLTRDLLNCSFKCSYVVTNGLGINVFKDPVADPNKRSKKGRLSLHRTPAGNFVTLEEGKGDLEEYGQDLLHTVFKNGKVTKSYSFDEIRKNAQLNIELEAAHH

Compound: CC(C)(O)CS(=O)(=O)Nc1ccc2c(c1)CCN(C(=O)COc1cccnc1)C2 [Example 1, 2-Hydroxy-2-methyl-N-[2-[2-(3-pyridyloxy)acetyl]-3,4-dihydro-1H-isoquinolin-6-yl]propane-1-sulfonamide]
- IC50 (NAMPT): 3.1 nM
- NAD formation (A2780 Cancer Cells; A2780 cancer cells, in words): dose-dependent inhibition
- glycolytic intermediates (HP, FBP, and DHAP/G3P) before and at the G3P dehydrogenase step (A2780 Cancer Cells; A2780 cancer cells, in words): dose-dependent increase
- intermediates (PEP, and PG) after the G3P dehydrogenase step (A2780 Cancer Cells; A2780 cancer cells, in words): dose-dependent decrease
- key intermediates of the pentose phosphate pathway including SP (A2780 Cancer Cells; A2780 cancer cells, in words): increased
- Metabolite Levels (μM) DHAP (A2780 Cancer Cells; compound 0.000508 μM): 0.6 µM
- Metabolite Levels (μM) FBP (A2780 Cancer Cells; compound 0.000508 μM): 2.5 µM
- Metabolite Levels (μM) FP (A2780 Cancer Cells; compound 0.000508 μM): 1.9 µM
- Metabolite Levels (μM) NAD (A2780 Cancer Cells; compound 0.000508 μM): 0.331 µM
- Metabolite Levels (μM) SP (A2780 Cancer Cells; compound 0.000508 μM): 0.3 µM
- Metabolite Levels (μM) DHAP (A2780 Cancer Cells; compound 0.00152 μM): 0.6 µM
- Metabolite Levels (μM) FBP (A2780 Cancer Cells; compound 0.00152 μM): 3.0 µM
- Metabolite Levels (μM) FP (A2780 Cancer Cells; compound 0.00152 μM): 2.1 µM
- Metabolite Levels (μM) NAD (A2780 Cancer Cells; compound 0.00152 μM): 0.244 µM
- Metabolite Levels (μM) SP (A2780 Cancer Cells; compound 0.00152 μM): 0.3 µM
- Metabolite Levels (μM) DHAP (A2780 Cancer Cells; compound 0.00457 μM): 0.6 µM
- Metabolite Levels (μM) FBP (A2780 Cancer Cells; compound 0.00457 μM): 4.1 µM
- Metabolite Levels (μM) FP (A2780 Cancer Cells; compound 0.00457 μM): 2.4 µM
- Metabolite Levels (μM) NAD (A2780 Cancer Cells; compound 0.00457 μM): 0.089 µM
- Metabolite Levels (μM) SP (A2780 Cancer Cells; compound 0.00457 μM): 0.4 µM
- Metabolite Levels (μM) DHAP (A2780 Cancer Cells; compound 0.0137 μM): 1.0 µM
- Metabolite Levels (μM) FBP (A2780 Cancer Cells; compound 0.0137 μM): 7.2 µM
- Metabolite Levels (μM) FP (A2780 Cancer Cells; compound 0.0137 μM): 3.0 µM
- Metabolite Levels (μM) NAD (A2780 Cancer Cells; compound 0.0137 μM): 0.027 µM
- Metabolite Levels (μM) SP (A2780 Cancer Cells; compound 0.0137 μM): 0.5 µM
- Metabolite Levels (μM) DHAP (A2780 Cancer Cells; compound 0.0412 μM): 2.0 µM
- Metabolite Levels (μM) FBP (A2780 Cancer Cells; compound 0.0412 μM): 19.3 µM
- Metabolite Levels (μM) FP (A2780 Cancer Cells; compound 0.0412 μM): 7.6 µM
- Metabolite Levels (μM) NAD (A2780 Cancer Cells; compound 0.0412 μM): 0.014 µM
- Metabolite Levels (μM) SP (A2780 Cancer Cells; compound 0.0412 μM): 1.3 µM
- Metabolite Levels (μM) DHAP (A2780 Cancer Cells; compound 0.123 μM): 3.8 µM
- Metabolite Levels (μM) FBP (A2780 Cancer Cells; compound 0.123 μM): 34.3 µM
- Metabolite Levels (μM) FP (A2780 Cancer Cells; compound 0.123 μM): 15.1 µM
- Metabolite Levels (μM) NAD (A2780 Cancer Cells; compound 0.123 μM): 0.008 µM
- Metabolite Levels (μM) SP (A2780 Cancer Cells; compound 0.123 μM): 2.6 µM
- Metabolite Levels (μM) DHAP (A2780 Cancer Cells; compound 0.37 μM): 5.0 µM
- Metabolite Levels (μM) FBP (A2780 Cancer Cells; compound 0.37 μM): 40.9 µM
- Metabolite Levels (μM) FP (A2780 Cancer Cells; compound 0.37 μM): 17.2 µM
- Metabolite Levels (μM) NAD (A2780 Cancer Cells; compound 0.37 μM): 0.010 µM
- Metabolite Levels (μM) SP (A2780 Cancer Cells; compound 0.37 μM): 3.2 µM
- Metabolite Levels (μM) DHAP (A2780 Cancer Cells; compound 1.111 μM): 5.4 µM
- Metabolite Levels (μM) FBP (A2780 Cancer Cells; compound 1.111 μM): 38.6 µM
- Metabolite Levels (μM) FP (A2780 Cancer Cells; compound 1.111 μM): 18.0 µM
- Metabolite Levels (μM) NAD (A2780 Cancer Cells; compound 1.111 μM): 0.008 µM
- Metabolite Levels (μM) SP (A2780 Cancer Cells; compound 1.111 μM): 3.3 µM
- Metabolite Levels (μM) DHAP (A2780 Cancer Cells; compound 3.333 μM): 5.2 µM
- Metabolite Levels (μM) FBP (A2780 Cancer Cells; compound 3.333 μM): 43.0 µM
- Metabolite Levels (μM) FP (A2780 Cancer Cells; compound 3.333 μM): 18.8 µM
- Metabolite Levels (μM) NAD (A2780 Cancer Cells; compound 3.333 μM): 0.007 µM
- Metabolite Levels (μM) SP (A2780 Cancer Cells; compound 3.333 μM): 3.4 µM
- Metabolite Levels (μM) DHAP (A2780 Cancer Cells; compound 10 μM): 5.5 µM
- Metabolite Levels (μM) FBP (A2780 Cancer Cells; compound 10 μM): 39.7 µM
- Metabolite Levels (μM) FP (A2780 Cancer Cells; compound 10 μM): 17.1 µM
- Metabolite Levels (μM) NAD (A2780 Cancer Cells; compound 10 μM): 0.008 µM
- Metabolite Levels (μM) SP (A2780 Cancer Cells; compound 10 μM): 2.8 µM
